How the values were obtained:
[1] = system: SIRPα signalling induced by A549 cells; test: Assay B: SIRPα signalling assay using A549 cells; assay type: cell-based, human; details: Homo sapiens, compounds of the invention, Table 4, read-out: Inhibition of SIRα signalling induced by A549 cells: IC50
Procedure: Two cell types are independently used: the Raji cell line (lymphoblastlike human cell line derived from B lymphocytes from a Burkitt's lymphoma patient in 1963) and A549 cells (adenocarcinomic human alveolar basal epithelial cells).
Test compounds were dissolved in 100% DMSO and serially diluted into a white 384-well microtiter cell culture plate (PerkinElmer #60076780 in case of Raji assay; PDL-coated plates Greiner #781945 in case of A549 assay). 5000 Raji cells (ATCC #CC86) or 5000 A549 cells (ATCC #CCL-185) in Assay Complete Cell Plating reagent 30 (DiscoverX 93-0563R30B) were added per well. The assay plate was incubated for 48 h at 37° C., 95% humidity and 5% CO2. 15000 reporter cells (Jurkat PathHunter SIRPα V1, DiscoverX #93-1135C19) were added to each well, and the plate was incubated for 5 h at 37° C., 95% humidity and 5% CO2. Bioassay reagent 1 of the PathHunter Bioassay detection kit (DiscoverX 93-0001) was added to each well of the plate using a multichannel pipette followed by a 15 min incubation at room temperature. Afterwards bioassay reagent 2 was added followed by 60 min incubation at room temperature (incubation in the dark).
The analysis of the data was performed using the luminescence signal generated by beta-galactosidase in the PathHunter reporter cell line. The luminescence measurement was done using a Pherastar Multi-Mode Reader. Dose-response curves & IC50 data were calculated with 4-parameter sigmoidal dose response formula.

[2] = Assay C: permeability in CACO-2 cells; assay type: in vitro ADME; details: human, pH 7.2, compounds of the invention, Table 7; for Papp A→B: Caco-2, apical to basolateral; for efflux ratio: Caco-2
Procedure: Compounds are dissolved in appropriate solvent (like DMSO, 1-20 mM stock solutions). […] The transport solution (TL) is applied to the apical or basolateral donor side for measuring A-B or B-A permeability (3 filter replicates), respectively. Samples are collected at the start and end of experiment from the donor and at various time intervals for up to 2 hours also from the receiver side for concentration measurement by HPLC-MS/MS or scintillation counting. Sampled receiver volumes are replaced with fresh receiver solution.

[3] = system: SIRPα signalling induced by Raji cells; test: Assay B: SIRPα signalling assay using Raji cells; assay type: cell-based, human; details: Homo sapiens, compounds of the invention, Table 4, read-out: Inhibition of SIRα signalling induced by Raji cells: IC50
Procedure: Bioassay reagent 1 of the PathHunter Bioassay detection kit (DiscoverX 93-0001) was added to each well of the plate using a multichannel pipette followed by a 15 min incubation at room temperature. Afterwards bioassay reagent 2 was added followed by 60 min incubation at room temperature (incubation in the dark).
The analysis of the data was performed using the luminescence signal generated by beta-galactosidase in the PathHunter reporter cell line. The luminescence measurement was done using a Pherastar Multi-Mode Reader.

[4] = target: QPCT (Homo sapiens (Human), UniProt Q16769); test: Assay A: biochemical QPCT activity assay (MALDI-TOF MS); details: compounds of the invention, Table 2; read-out: Inhibition of QPCT: IC50
Procedure: (§1) QPCT or QPCTL dependent conversion of N-terminal glutamine to pyroglutamate of CD47 was monitored via MALDI-TOF MS. Test compounds were dissolved in 100% DMSO and serially diluted into clear 1,536-well microtiter plates. Enzymatic reactions were set up in assay buffer containing 20 mM Tris pH 7.5, 0.1 mM TCEP, 0.01% BSA, and 0.001% Tween20. […] The plates were incubated for 10 min in a humidified incubator at 24° C. Subsequently, 2.5 μL of CD47 peptide substrate surrogate (^19[…]^33) was added to each well (final concentration: 10 μM for QPCTL/20 μM for QPCT). The plates were mixed for 30 sec at 1,000 rpm and subsequently incubated for 40 min in a humidified incubator at 24° C. […] The plates were sealed with an adhesive foil, mixed for 30 s at 1,000 rpm and stored at room temperature until preparation of the MALDI target plates. […] QPCT or QPCTL activity was monitored by calculating the ratio between product and internal standard signals followed by normalization to high (100% activity) and low (0% activity) controls. Determination of compound potencies was obtained by fitting the dose-response data to a four-parameter logistical equation.

[5] = target: QPCTL (Homo sapiens (Human), UniProt Q9NXS2); test: Assay A: biochemical QPCTL activity assay (MALDI-TOF MS); details: compounds of the invention, Table 2; read-out: Inhibition of QPCTL: IC50
Procedure: as §1

Sequence of QPCTL (Q9NXS2 whole entry): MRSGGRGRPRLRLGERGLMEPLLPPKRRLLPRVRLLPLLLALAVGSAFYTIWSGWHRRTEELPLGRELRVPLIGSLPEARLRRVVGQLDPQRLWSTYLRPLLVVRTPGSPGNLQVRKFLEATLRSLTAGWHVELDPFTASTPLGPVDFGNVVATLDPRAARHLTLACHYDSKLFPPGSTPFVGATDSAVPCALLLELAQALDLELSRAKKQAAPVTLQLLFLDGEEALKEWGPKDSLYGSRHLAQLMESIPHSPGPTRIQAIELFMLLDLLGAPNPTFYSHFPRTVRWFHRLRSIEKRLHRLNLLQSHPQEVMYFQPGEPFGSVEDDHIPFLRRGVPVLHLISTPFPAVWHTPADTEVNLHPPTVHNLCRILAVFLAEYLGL
Sequence of QPCT (Q16769 29-361): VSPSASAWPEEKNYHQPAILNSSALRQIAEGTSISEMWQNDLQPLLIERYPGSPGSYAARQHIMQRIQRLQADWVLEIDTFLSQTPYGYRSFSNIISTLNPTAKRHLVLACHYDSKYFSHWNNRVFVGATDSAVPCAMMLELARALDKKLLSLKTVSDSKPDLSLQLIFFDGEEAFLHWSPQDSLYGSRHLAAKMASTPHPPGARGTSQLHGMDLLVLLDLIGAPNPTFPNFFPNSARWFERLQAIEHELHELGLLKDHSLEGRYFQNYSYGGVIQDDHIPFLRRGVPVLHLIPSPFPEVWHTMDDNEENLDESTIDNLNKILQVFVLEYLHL

IC50 [1] | Papp A→B [2] | efflux ratio [2] | IC50 [3] | IC50 [4] | IC50 [5] | Structure (SMILES)
47 nM | 55 ×10⁻⁶ cm/s | 1.3 | 102 nM | 3 nM | 1 nM | Cc1cc(F)ncc1-c1cccc(C#N)c1N1CCC(F)(c2nncn2C)CC1 [compound 83]
274 nM | 0.6 ×10⁻⁶ cm/s | 47.5 | 366 nM | 13 nM | 7 nM | Cn1cnnc1C1(F)CCN(c2c(C#N)cccc2-c2cnc3ncccc3c2)CC1 [compound 68]
63 nM | 33 ×10⁻⁶ cm/s | 1.8 | 91 nM | 6 nM | 3 nM | Cn1cnnc1C1(F)CCN(c2c(C#N)cccc2-c2cnc3nc(-c4cccc(Cl)c4)ccn23)CC1 [compound 84]
58 nM | 5.3 ×10⁻⁶ cm/s | 7.4 | 229 nM | 24 nM | 6 nM | Cn1cnnc1C1CCN(c2c(C#N)cccc2-c2cccnc2)CC1 [compound 67]
74 nM | 14 ×10⁻⁶ cm/s | 2.4 | 79 nM | 2 nM | 5 nM | Cn1cnnc1C1(F)CCN(c2c(C#N)cccc2-c2cnn3ncccc23)CC1 [compound 70]
20 nM | 3.9 ×10⁻⁶ cm/s | 14.4 | 28 nM | 1 nM | 1 nM | Cn1cnnc1C1(F)CCN(c2c(C#N)cccc2-c2cnc3nc(C(C)(C)C)nn3c2)CC1 [compound 72]
22 nM | 40 ×10⁻⁶ cm/s | 0.7 | 16 nM | 3 nM | 2 nM | Cn1cnnc1C1(F)CCN(c2c(C#N)cccc2-c2cnn3nc(-c4cccc(Cl)c4)ccc23)CC1 [compound 79]
26 nM | 1.7 ×10⁻⁶ cm/s | 14.1 | 18 nM | 1 nM | 1 nM | Cn1cnnc1C1(F)CCN(c2c(C#N)cccc2-c2cnc3nc(C(F)(F)F)cn3c2)CC1 [compound 74]
23 nM | 18 ×10⁻⁶ cm/s | 1.6 | 13 nM | 1 nM | 1 nM | Cn1cnnc1C1(F)CCN(c2c(C#N)cccc2-c2cnc3nn(C(C)(C)C)c(Cl)c3c2)CC1 [compound 86]
27 nM | 39 ×10⁻⁶ cm/s | 0.7 | 27 nM | 5 nM | 1 nM | Cn1cnnc1C1CCN(c2c(C#N)cccc2-c2cnn3nc(-c4cccc(Cl)c4)ccc23)CC1 [compound 81]
27 nM | 2.7 ×10⁻⁶ cm/s | 24.4 | 49 nM | 1 nM | 2 nM | Cn1cnnc1C1(F)CCN(c2c(C#N)cccc2-c2cnc3nc(C(C)(C)C)cn3c2)CC1 [compound 71]

More lines, now with the values behind:

Structure (SMILES) | IC50 [1] | Papp A→B [2] | efflux ratio [2] | IC50 [3] | IC50 [4] | IC50 [5]
Cn1cnnc1C1CCN(c2c(C#N)cccc2-c2cnc3c(c2)NCCO3)CC1 [compound 24] | 177 nM | 1 ×10⁻⁶ cm/s | 34 | 368 nM | 56 nM | 14 nM
Cn1cnnc1C1CCN(c2c(C#N)cccc2-c2ccnnc2)CC1 [compound 32] | 69 nM | 0.3 ×10⁻⁶ cm/s | 28.1 | 158 nM | 6 nM | 1 nM
COc1cncc(-c2cccc(C#N)c2N2CCC(c3nncn3C)CC2)c1 [compound 16] | 332 nM | 4.5 ×10⁻⁶ cm/s | 12.2 | 625 nM | 86 nM | 22 nM
Cc1ccncc1-c1cccc(C#N)c1N1CCC(c2nncn2C)CC1 [compound 8] | 348 nM | 3.9 ×10⁻⁶ cm/s | 9.5 | 257 nM | 31 nM | 6 nM
COc1cc(F)ncc1-c1cccc(C#N)c1N1CCC(c2nncn2C)CC1 [compound 44] | 121 nM | 11 ×10⁻⁶ cm/s | 1.5 | 109 nM | 18 nM | 4 nM
Cn1cnnc1C1CCN(c2c(C#N)cccc2-c2cnsc2)CC1 [compound 2] | 40 nM | 25 ×10⁻⁶ cm/s | 1.8 | 715 nM | 51 nM | 12 nM
CC(C)Oc1cc(-c2cccc(C#N)c2N2CCC(c3nncn3C)CC2)cnc1F [compound 19] | 18 nM | 39 ×10⁻⁶ cm/s | 2 | 53 nM | 9 nM | 1 nM
Cn1cnnc1C1CCN(c2c(C#N)cccc2-c2cncc(-c3ncco3)c2)CC1 [compound 29] | 81 nM | 3.1 ×10⁻⁶ cm/s | 16.5 | 121 nM | 25 nM | 3 nM
Cn1cnnc1C1CCN(c2c(C#N)cccc2-c2cncc(F)c2)CC1 [compound 17] | 199 nM | 7.3 ×10⁻⁶ cm/s | 7.4 | 1170 nM | 77 nM | 15 nM
Cc1c(-c2cccc(C#N)c2N2CCC(c3nncn3C)CC2)cncc1-n1cccn1 [compound 46] | 71 nM | 6.8 ×10⁻⁶ cm/s | 2.5 | 97 nM | 13 nM | 2 nM
Cn1cnnc1C1CCN(c2c(C#N)cccc2-c2cnc(F)c(F)c2)CC1 [compound 20] | 53 nM | 22 ×10⁻⁶ cm/s | 3 | 147 nM | 28 nM | 5 nM
Cn1cnnc1C1(F)CCN(c2c(C#N)cccc2-c2cnc3nn(C(C)(C)C(F)(F)F)cc3c2)CC1 [compound 61] | 22 nM | 8 ×10⁻⁶ cm/s | 8.9 | 23 nM | 1 nM | 2 nM
COc1cc(-c2cccc(C#N)c2N2CCC(c3nncn3C)CC2)cnn1 [compound 48] | 674 nM | 1.1 ×10⁻⁶ cm/s | 21.8 | 446 nM | 22 nM | 7 nM
Cn1cnnc1C1(C)CCN(c2c(C#N)cccc2-c2ccc(F)nc2)CC1 [compound 66] | 14 nM | 30 ×10⁻⁶ cm/s | 1.4 | 100 nM | 2 nM | 3 nM
Cn1cnnc1C1(F)CCN(c2c(C#N)cccc2-c2ccnnc2)CC1 [compound 52] | 16 nM | 15 ×10⁻⁶ cm/s | 1.1 | 67 nM | 3 nM | 2 nM
Cn1cnnc1C1CCN(c2c(C#N)cccc2-c2cncnc2)CC1 [compound 13] | 165 nM | 1.6 ×10⁻⁶ cm/s | 11.9 | 782 nM | 52 nM | 15 nM
Cn1cnnc1C1CCN(c2c(C#N)cccc2-c2cnc3nonc3c2)CC1 [compound 7] | 67 nM | 1.5 ×10⁻⁶ cm/s | 19.3 | 170 nM | 12 nM | 2 nM
Cn1cnnc1C1CCN(c2c(C#N)cccc2-c2cncc(C3CCCCO3)c2)CC1 (stereo not drawn) [compound 39] | 18 nM | 10 ×10⁻⁶ cm/s | 5.1 | 133 nM | 29 nM | 5 nM

Reference: US20240246981A1, “[…] DERIVATIVES AS INHIBITORS OF […]-PEPTIDE CYCLOTRANSFERASE AND […]-PEPTIDE CYCLOTRANSFERASE LIKE PROTEIN” (Boehringer Ingelheim International GmbH, priority 2022, published 2024)
